# Reference: ChEMBL document CHEMBL2303647, “Data associated with the publication PLoS ONE, 8(3), e57888, (2013) PMID: 23505445. Compounds: GSK PKIS; Assays: NIH NCATS”
# Columns and labels:
# [1] = molecular target: Luciferin 4-monooxygenase (Photinus pyralis, UniProt P08659)
# Description: GSK_PKIS: Inhibition of Firefly Luciferase (Data from PubChem: AID 652016) [NIH NCATS]
# [2] = molecular target: T1, Coelenterazine h 2-monooxygenase (Renilla reniformis, UniProt P27652)
# T1 sequence (P27652 whole entry): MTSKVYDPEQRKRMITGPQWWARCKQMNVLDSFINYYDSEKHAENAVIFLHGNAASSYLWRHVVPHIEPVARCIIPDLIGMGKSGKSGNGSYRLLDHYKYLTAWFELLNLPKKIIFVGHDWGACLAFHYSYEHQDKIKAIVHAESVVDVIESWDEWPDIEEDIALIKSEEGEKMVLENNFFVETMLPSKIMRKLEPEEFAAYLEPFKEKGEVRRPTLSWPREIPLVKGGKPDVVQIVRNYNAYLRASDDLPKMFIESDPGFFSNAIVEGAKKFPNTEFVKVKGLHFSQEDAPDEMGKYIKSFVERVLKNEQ
# Description: GSK_PKIS: Inhibition of Sea Pansy Luciferase (Data from PubChem: AID 652015) [NIH NCATS]
# Sequence of Luciferin 4-monooxygenase (P08659 whole entry): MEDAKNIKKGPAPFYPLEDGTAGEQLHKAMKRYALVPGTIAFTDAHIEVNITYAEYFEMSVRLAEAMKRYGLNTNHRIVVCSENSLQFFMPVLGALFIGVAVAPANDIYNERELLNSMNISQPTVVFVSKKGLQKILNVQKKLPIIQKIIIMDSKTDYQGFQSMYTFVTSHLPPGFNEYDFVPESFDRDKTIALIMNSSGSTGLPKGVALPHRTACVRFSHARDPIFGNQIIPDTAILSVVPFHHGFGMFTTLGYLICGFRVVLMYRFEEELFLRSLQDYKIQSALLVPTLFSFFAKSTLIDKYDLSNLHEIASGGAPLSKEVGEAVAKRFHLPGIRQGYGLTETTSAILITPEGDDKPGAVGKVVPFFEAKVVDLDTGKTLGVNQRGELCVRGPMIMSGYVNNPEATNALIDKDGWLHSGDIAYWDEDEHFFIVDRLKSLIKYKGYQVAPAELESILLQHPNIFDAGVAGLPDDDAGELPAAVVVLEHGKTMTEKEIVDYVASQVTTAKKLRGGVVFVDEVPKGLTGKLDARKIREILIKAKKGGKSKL
Compound,AC50 [1],AC50 ([2]; read-out: AC50),AC50 ([1]; read-out: AC50),AC50 [2]
CCn1c(-c2nonc2N)nc2c(C#CC(C)(C)O)nc(OCCNC)cc21.Cl [GSK-949675A],Phenotype: Inactive; Curve_Description: None,20.6 µM,,
O=C(Nc1n[nH]c2cc(-c3ccccc3)ccc12)C1CC1,,,18.3 µM,Phenotype: Inactive; Curve_Description: None
NS(=O)(=O)c1ccc(N/N=C2\C(=O)Nc3ccc(Cl)cc32)cc1 [GW280670X],,36.6 µM,41.1 µM,
NC(=O)c1cccc(Nc2nccc(Nc3cccc4[nH]ncc34)n2)c1 [GW782612X],,,13 µM,Phenotype: Inactive; Curve_Description: None
Fc1ccc(-c2ncn(C3CCNCC3)c2-c2ccnc(Oc3ccc(Oc4ccccc4)cc3)n2)cc1,Phenotype: Inactive; Curve_Description: None,20.6 µM,,
COc1cc(Nc2ncc3c(C)nc(-c4cccc(C(F)(F)F)c4)n3n2)cc(OC)c1OC [GW837331X],Phenotype: Inactive; Curve_Description: None,,,Phenotype: Inactive; Curve_Description: None
Cl.NCc1ccc(-c2nc(-c3ccc(Cl)c(O)c3)c(-c3ccncc3)[nH]2)cc1,Phenotype: Inactive; Curve_Description: None,,,Phenotype: Inactive; Curve_Description: None
CCn1c(-c2nonc2N)nc2c(C#CC(C)(C)O)nc(CN3CCCC3)cc21 [GSK-1000163A],Phenotype: Inactive; Curve_Description: None,,,Phenotype: Inactive; Curve_Description: None
N#Cc1c(NC(=O)c2ccc(F)cc2)sc2c1CCCC2,,,0.919 µM,Phenotype: Inactive; Curve_Description: None
Cl.O=C(O[C@H]1CN[C@H](C#Cc2cc3ncnc(Nc4ccc5c(cnn5Cc5ccccc5)c4)c3s2)C1)N1CCOCC1 [GSK-200398A],,,18.3 µM,Phenotype: Inactive; Curve_Description: None
COc1cc2ncn(-c3cc(OCc4ccccc4C(F)(F)F)c(C(=O)N(C)C)s3)c2cc1OC [GSK-1030062A],Phenotype: Inactive; Curve_Description: None,23.1 µM,,
CNC(=O)c1cc(-c2ccc(F)cc2)cc(-c2ccc(S(=O)(=O)N3CCCC3)cc2)c1N [GSK-635416A],Phenotype: Inactive; Curve_Description: None,,,Phenotype: Activator; Curve_Description: None
C[C@@H](Oc1cc(-n2cnc3ccc(OCC4CCN(C)CC4)cc32)sc1C(N)=O)c1ccccc1Cl [GSK-571989A],Phenotype: Inactive; Curve_Description: None,20.6 µM,,
COC(=O)Nc1nc2cc(Oc3ccc(NC(=O)Nc4cccc(C(=O)O)c4)cc3)ccc2[nH]1 [GW701427A],,41.1 µM,0.116 µM,
NC(=O)c1cc(-c2ccc(F)cc2)cc(-c2ccncc2)c1N [GSK-620503A],Phenotype: Inactive; Curve_Description: None,,,Phenotype: Inactive; Curve_Description: None
CNC(=O)c1cncc(/C=C/c2c(C)cccc2C)c1 [GW445012X],,,20.6 µM,Phenotype: Inactive; Curve_Description: None
COc1cccc(-n2ncc3c(N/N=C/c4ccc(C)cc4)ncnc32)c1 [GW829877X],Phenotype: Inactive; Curve_Description: None,,,Phenotype: Inactive; Curve_Description: None
Nc1nc(-c2ccccn2)c(-c2ccc3ncccc3n2)s1 [GW693481X],,,32.6 µM,Phenotype: Inactive; Curve_Description: None
Cl.Nc1ncnc2occ(-c3ccc(NC(=O)Nc4cc(C(F)(F)F)ccc4F)cc3)c12 [GW770249A],Phenotype: Inactive; Curve_Description: None,,,Phenotype: Inactive; Curve_Description: None
Cc1ccc(O)cc1Nc1ccnc2ccc(S(C)(=O)=O)cc12 [GW559768X],,,41.1 µM,Phenotype: Inactive; Curve_Description: None
CCc1nccc2c1nc(-c1nonc1N)n2CC,Phenotype: Inactive; Curve_Description: None,,,Phenotype: Inactive; Curve_Description: None
COc1cccc(Nc2nccc(-c3cnn4ncccc34)n2)c1 [PYRAZOLOPYRIDAZINE 1],Phenotype: Inactive; Curve_Description: None,,,Phenotype: Inactive; Curve_Description: None
